Data from patent publication US20220402917A1, “COMPOUND AS SMALL MOLECULE INHIBITOR PD-1/PD-L1 AND APPLICATION THEREOF” (MEDSHINE DISCOVERY INC., priority 2019, published 2022).

Assays:
[1] = target: T1, PD-L1 in MDA-MR-231 cells (Homo sapiens, UniProt Q9NZQ7); assay: Effect on expression level of PD-L1 in MDA-MR-231 cells (FACS); assay type: cell-based; settings: 24 hours incubation, FACS detection of cell surface PD-L1
T1 construct: endogenous in cells; host or cells: MDA-MB-231
Description: Experimental Example 2: Using MDA-MR-231 Cells to Detect the Effect of Compounds on the Expression Level of PD-L1
The use of a triple-negative breast cancer cell line (MDA-MB-231) is an indirect method to assess PD-L1 endocytosis. PD-L1 molecules on the cell surface can be degraded by lysosomal and proteasome pathways, and small molecule inhibitors are added to induce PD-L1 endocytosis. After co-incubating small molecules with MDA-MB-231 cells for 24 hours, flow cytometry (Fluorescence-activated Cell Sorting, FACS) is used to detect the content of PD-L1 on the cell surface, which can indirectly reflect the effect of small molecule-induced PD-L1 endocytosis. Flow cytometry (FACS) is used to detect the effect of the compounds of the present disclosure on the expression level of PD-L1 in MDA-MR-231 cells.
Phosphate buffer (DPBS), 1640 medium, penicillin-streptomycin, fetal bovine serum, non-essential amino acids, 2-hydroxy-1-ethanethiol (2-ME), human interferon γ, LIVE/DEAD staining solution, staining buffer, fixation buffer, 0.25% trypsin, EDTA, anti-human PD-L1, anti-human PD-L1 isotype.
1640 complete medium preparation: 50 mL of fetal bovine serum, 5 mL of non-essential amino acids, 5 mL of penicillin-streptomycin and 0.5 mL of 2-hydroxy-1-ethanethiol were added to 439.5 mL of 1640 medium, and evenly mixed.
10 mM EDTA preparation: 1 mL of 0.5M EDTA was added to 49 mL of DPBS, and evenly mixed.
1) MDA-MB-231 cell counting and plating: The culture flask was taken out, the medium was removed and the culture flask was rinsed once with DPBS. After the culture flask was rinsed, 3 mL of 0.25% trypsin was added to the culture flask and the culture flask was placed in a 37° C. incubator for 1.5 min. The culture flask was taken out, 9 mL of 1640 complete medium was added to stop the reaction, the cells was transferred to a 50 mL centrifuge tube, and centrifuged at 1000 rpm for 5 min at 37° C. An appropriate volume of medium was added to re-suspend the cells according to the number of cells, and the number of cells was counted with a cell counter. The cell concentration was adjusted to 5×10^5 cells/mL with medium. Planking: A volume of 200 μL of cell suspension was added to each well of a 96-well plate, ensure that the number of cells in each well was 1×10^5. The cells were incubated overnight in an incubator. 2) Drug incubation: 100-fold dilution of compounds were prepared, and the drug was subjected to a 5-fold gradient dilution. 2 μL of each 100-fold dilution of compounds were added to each well. The cells were incubated in an incubator at 37° C. for 24 hours. 3) PD-L1 cell staining and FACS detection: the culture plate was taken out and the supernatant medium was discarded. The cells were washed once with 200 μL 1×PBS. 100 μL of EDTA (final concentration of 10 mM) was added to the cell suspension, and the cell suspension was treated at 37° C. for 10 min. Then after the cell suspension was centrifuged at 1500 rpm for 5 min, the cell suspension was washed once with 200 μL of staining solution. Staining: anti-human PD-L1 (2 μL per well) and LIVE/DEAD staining solution (1:1000) were diluted in staining solution, 50 μL of the staining solution was added to each well, and the staining was conducted at 4° C. for 30 min. Then the solution was washed twice with 200 μL of staining solution. Fixation: 100 μL of fixing solution was added to each well, the fixation was conducted at 4° C. for 15 min. The solution was then washed twice with 200 μL of staining solution, and 150 μL of solution was added to re-suspend the cells, followed by FACS detection.
Table 2 provides the effects of the compounds of the examples of the present disclosure on the expression level of PD-L1 in MDA-MR-231 cells.

[2] = target: PD1/PD-L1 (Homo sapiens, UniProt Q9NZQ7); assay: NFAT activity test (TCR Activitor/PD-L1 CHO cells with PD-1/NFAT Reporter-Jurkat cells); assay type: cell-based; parameters: host or cells: TCR Activitor/PD-L1 CHO cells; PD-1/NFAT Reporter-Jurkat cells; settings: TCR Activitor/PD-L1 CHO cells + PD-1/NFAT Reporter-Jurkat cells, 5 hours, luciferase; for IC50: read-out: IC50, inhibitory activity on PD1/PD-L1 binding (NFAT activity test)
PD1/PD-L1, sequence (Q9NZQ7 19-290): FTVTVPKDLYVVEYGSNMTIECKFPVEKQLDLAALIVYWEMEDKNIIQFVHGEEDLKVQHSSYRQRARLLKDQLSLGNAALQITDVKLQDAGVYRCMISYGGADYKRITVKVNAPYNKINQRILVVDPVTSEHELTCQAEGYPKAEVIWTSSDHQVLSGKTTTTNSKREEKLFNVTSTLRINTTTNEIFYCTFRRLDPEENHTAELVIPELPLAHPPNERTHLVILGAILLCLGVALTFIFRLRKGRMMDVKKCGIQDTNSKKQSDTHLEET
Source text: Experimental Example 3: NFAT Activity Test
The engineered T cell expresses PD-1 molecules and T cell receptor (TCR) on the surface, which can activate the NFAT signaling pathway of T cells after co-culturing with engineered antigen presenting cells (APCs). Expression of PD-L1 molecules on APCs can effectively attenuate the NFAT signaling pathway in T cells. PD-L1 inhibitors can be used effectively block the PD-1/PD-L1 regulatory mechanism, thereby reversing the weakened NFAT signaling pathway. After being pretreated with APC, the small molecule is co-cultured with T cells, then the expression of luciferase was detected to indirectly reflect the activation of the NFAT pathway in T cells.
The PD1/PD-L1 NFAT detection kit was purchased from BPS Biosciences. Birght-Glo reagent was purchased from Promega. Nivo multi-label analyzer (PerkinElmer).
The TCR Activitor/PD-L1 CHO cells with a growth confluence of 80% were plated into the plate at 35,000 cells per well and placed in a 37° C. cell culture incubator overnight; the compounds to be tested were diluted 5-fold to the 8th concentration, from 20 μM to 0.25 nM, and the DMSO concentration was 2%, a double-well experiment was set up. The TCR Activitor/PD-L1 CHO cell supernatant was discarded, 50 μl of compound working solution was added to each well, incubated at 37° C. for 30 minutes; after the incubation was completed, 50 μL of PD-1/NFAT Reporter-Jurkat cell suspension with a concentration of 4*10^5 cells/mL was added to each well, incubated at 37° C. for 5 hours. After the incubation was completed, 100 μL Bright-Glo was added to each well, and after mixing, the chemiluminescence signal was detected by a Nivo multi-label analyzer.
Using the equation (sample−Min)/(Max−Min)×100% to convert the raw data into inhibition rate, and the IC50 value can be obtained by curve fitting with four parameters (obtained from log(inhibitor) vs. response—Variable slope mode in GraphPad Prism). Table 3 provides the inhibitory activity of the compounds of the examples of the present disclosure on PD1/PD-L1 binding.

[3] = Pharmacokinetic test in C57BL/6 mice; assay type: in vivo; settings: mouse, plasma, male C57BL/6 mice
Description: Experimental Example 4: Pharmacokinetic Test
Experimental purpose: To study the pharmacokinetics of compounds in C57BL/6 mice.
Experimental materials: C57BL/6 mice (male, 8 weeks old, body weight 25 g-30 g)
Experimental operation: The pharmacokinetic characteristics of rodents after intravenous (IV) and oral (PO) administration of compounds were tested in standard protocols. In the experiment, the candidate compounds were formulated into 1 mg/mL clear solutions, and administered to mice via a single intravenous injection and oral administration. The vehicle of intravenous and oral administration was 5% DMSO/5% polyethylene glycol 15-hydroxystearate (Solutol)/90% aqueous solution. Four male C57BL/6 mice were used in the experiment, wherein two mice were administered intravenously at a dose of 1 mg/kg, and the plasma samples were collected 0.0833, 0.25, 0.5, 1, 2, 4, 6, 8 and 24 h after administration, the other two mice were given oral gavage at a dose of 10 mg/kg, and the plasma samples were collected 0.25, 0.5, 1, 2, 4, 6, 8, and 24 h after administration. Whole blood samples within 24 hours were collected, centrifuged at 3000 g for 15 minutes, and the supernatant was separated to obtain plasma samples. Acetonitrile solution containing internal standard was added thereto to precipitate proteins, the mixture was thoroughly mixed and centrifuged to obtain the supernatant for injection. The plasma concentration was quantified by LC-MS/MS analysis method, and the pharmacokinetic parameters were calculated, such as peak concentration (Cmax), clearance (CL), half-life (T1/2), […] (Vdss), area under the drug-time curve (AUC0-last), bioavailability (F) and so on.

T1 sequence (Q9NZQ7 19-290): as above

Row | SMILES | IC50 [1] [nM] | Maximum effect (induction fold) [2] [induction fold] | IC50 [2] [nM] | bioavailability ([3]; PO 10 mg/kg vs IV 1 mg/kg, read-out: Bioavailability F) [%] | Cmax ([3]; IV 1 mg/kg, PO 10 mg/kg (route not given for Cmax), read-out: Peak concentration Cmax) [nM] | clearance ([3]; IV 1 mg/kg, read-out: Clearance CL) [mL/min/kg] | half-life ([3]; IV 1 mg/kg, read-out: Half-life T1/2 (IV) (converted)) [h] | Vd ([3]; IV 1 mg/kg, read-out: Tissue distribution Vdss) [L/kg] | AUC(0-t) ([3]; PO 10 mg/kg, read-out: Area under the drug-time curve AUC0-last PO) [µM·h]
1 | COc1nc(-c2cccc(-c3cccc(NC(=O)c4cc(C)c5c(n4)CN(CCO)CC5)c3Cl)c2Cl)cnc1CN1CC(CO)C1 [Compound 35] | 5.18 | 4.44 | 17.5 |  |  |  |  |  | 
2 | COc1nc(-c2cccc(-c3cccc(NC(=O)c4nc(C)c5c(n4)CN(CCO)CC5)c3Cl)c2Cl)cnc1CN1CC(O)C1 [Compound 36] | 95.8 | 3.20 | 46.5 |  |  |  |  |  | 
3 | COc1nc(-c2cccc(-c3cccc(NC(=O)c4cc(C)c5c(n4)CN(CCO)CC5)c3Cl)c2Cl)cnc1CN1CC2(CC(O)C2)C1 [Compound 39] | 5.52 | 4.62 | 11.9 |  |  |  |  |  | 
4 | COc1nc(-c2cccc(-c3cccc(NC(=O)c4cc(C)c5c(n4)CN(CCO)CC5)c3Cl)c2Cl)cnc1CN1CCCC1CO (centres unmarked) [Compound 40] | 22.5 | 3.72 | 46.1 |  |  |  |  |  | 
5 | COc1nc(-c2cccc(-c3cccc(NC(=O)c4cc(OC(F)F)c5c(n4)CN(CCO)CC5)c3Cl)c2Cl)cnc1CN1CC(O)C1 [Compound 48] | 8.93 | 3.80 | 21.2 |  |  |  |  |  | 
6 | COc1nc(-c2cccc(-c3cccc(NC(=O)c4cc(C)c5c(n4)CN(CCC(C)O)CC5)c3Cl)c2Cl)cnc1CN1CC(O)C1 (centres unmarked) [Compound 49] | 33.8 | 5.30 | 175 |  |  |  |  |  | 
7 | COc1nc(-c2cccc(-c3cccc(NC(=O)c4cc(OCc5cncc(C#N)c5)c5c(n4)CN(CCO)CC5)c3Cl)c2Cl)cnc1CN1CC(O)C1 [Compound 51] | 25.8 | 4.28 | 47.9 |  |  |  |  |  | 

Now from value to molecule:

Row | IC50 [1] [nM] | Maximum effect (induction fold) [2] [induction fold] | IC50 [2] [nM] | bioavailability ([3]; PO 10 mg/kg vs IV 1 mg/kg, read-out: Bioavailability F) [%] | Cmax ([3]; IV 1 mg/kg, PO 10 mg/kg (route not given for Cmax), read-out: Peak concentration Cmax) [nM] | clearance ([3]; IV 1 mg/kg, read-out: Clearance CL) [mL/min/kg] | half-life ([3]; IV 1 mg/kg, read-out: Half-life T1/2 (IV) (converted)) [h] | Vd ([3]; IV 1 mg/kg, read-out: Tissue distribution Vdss) [L/kg] | AUC(0-t) ([3]; PO 10 mg/kg, read-out: Area under the drug-time curve AUC0-last PO) [µM·h] | SMILES
8 | 5.53 | 4.93 | 52.2 |  |  |  |  |  |  | COc1nc(-c2cccc(-c3cccc(NC(=O)c4cc(C)c5c(n4)CN(CCO)CC5)c3Cl)c2Cl)cnc1CN1CCC2(CNC(=O)C2)C1 (centres unmarked) [Compound 32]
9 | 6.99 | 4.14 | 18.9 |  |  |  |  |  |  | COc1nc(-c2cccc(-c3cccc(NC(=O)c4cc(C)c5c(n4)CN(CCO)CC5)c3Cl)c2Cl)cnc1CN1CCC(CO)C1 (centres unmarked) [Compound 33]
10 | 21.9 | 4.09 | 44.7 |  |  |  |  |  |  | COc1nc(-c2cccc(-c3cccc(NC(=O)c4cc(C)c5c(n4)CN(CCO)CC5)c3Cl)c2Cl)cnc1CN[C@H]1C[C@](C)(O)C1 [Compound 34]
11 | 8.86 | 4.40 | 50.8 |  |  |  |  |  |  | COc1nc(-c2cccc(-c3cccc(NC(=O)c4cc(C)c5c(n4)CN(CCO)CC5)c3Cl)c2Cl)cnc1CNCC1CCC(=O)N1 (centres unmarked) [Compound 38]
12 | 5.27 | 3.50 | 29.2 |  |  |  |  |  |  | COc1cc(C(=O)Nc2cccc(-c3cccc(-c4cnc(CN5CC(O)C5)c(OC)n4)c3Cl)c2Cl)nc2c1CCN(CCO)C2 [Compound 41]
13 | 7.81 | 4.37 | 45.4 |  |  |  |  |  |  | COc1nc(-c2cccc(-c3cccc(NC(=O)c4cc(C#N)c5c(n4)CN(CCO)CC5)c3Cl)c2Cl)cnc1CN1CC(O)C1 [Compound 45]
14 | 22.6 | 5.56 | 571 |  |  |  |  |  |  | COc1nc(-c2cccc(-c3cccc(NC(=O)c4cc(C(F)(F)F)c5c(n4)CN(CCO)CC5)c3Cl)c2Cl)cnc1CN1CC(O)C1 [Compound 46]
15 | 37.2 | 4.01 | 52 |  |  |  |  |  |  | COc1nc(-c2cccc(-c3cccc(NC(=O)c4cc(C)c5c(n4)CN(CCO)CC5)c3C#N)c2Cl)cnc1CN1CC(O)C1 [Compound 47]
16 |  | 4.55 | 45.8 | 63.5 | 221 | 85.5 | 3.72 | 18.3 | 1.66 | COc1nc(-c2cccc(-c3cccc(NC(=O)c4cc(C)c5c(n4)CN(CCO)C5)c3Cl)c2Cl)cnc1CN1CC(O)C1 [Compound 50]
